Laboratory results published in patent publication US20090270312A1, “HIV-I GP41 FUSION PEPTIDES FOR IMMUNOMODULALTION” (priority 2005, published 2009).
Residues, ends and D or L forms follow the SMILES beside them.

Columns and labels:
lymph node cells (LNC) [1] = experiment: Cell survival in culture with peptide; assay type: cell-based, rat; settings: cells incubated with peptide
lymph node cells (LNC) [2] = experiment: T-cell proliferation of mice LNC with MOG 35-55 peptide antigen; assay type: cell-based; settings: MOG35-55 peptide
lymph node cells (LNC) [3] = experiment: T-cell proliferation of LNC from Mt immunized rats ([methyl-3H]-thymidine incorporation); assay type: cell-based; settings: rat LNC, PPD 25 μg/ml
Method: T-cell proliferation. T-cell proliferation assays were performed using either lymph node cells (LNC) or the A2b T cell line, which reacts with the Mt176-90 peptide. Popliteal and inguinal LNC were removed 26 days after the injection of Mt in incomplete Freund's adjuvant (IFA), when strong T cell responses to PPD and Mt176-90 are detectable (Quintana et al., 2002). LNC were cultured at a concentration of 2×10^5 cells per well; 5×10^4 A2b T cells were stimulated in the presence of irradiated 5×10^5 thymic antigen presenting cells (APC) per well, prepared as previously described (van Eden et al., 1985). The cells were plated in quadruplicates in 200 μl round bottom microtiter wells (Costar Corp., Cambridge, USA), with or without antigen, in the presence of various concentrations of the peptides under study. For some experiments, the cells were activated with immobilized anti-CD3 antibodies or PMA/ionomycin as described (Wang et al., 2002). Cultures were incubated for 72 hr at 37° C. in a humidified atmosphere of 7.5% CO2. T-cell responses were detected by the incorporation of [methyl-3H]-thymidine (Amersham, Buckinghamshire, UK; 1 μCi/well), added during the last 18 hr of incubation. The results of T cell proliferation experiments are shown as the % of inhibition of the T cell proliferation triggered by the antigenin the absence of HIV or control peptides. […]

Lewis rats = experiment: Adjuvant Arthritis (AA); assay type: in vivo, rat; settings: 100 μg peptide in IFA with Mt at AA induction
Method: Induction and Assessment of Adjuvant Arthritis (AA). To test the effect of FP on T-cell activation in vivo, AA was used as a model system. AA was induced by injecting 50 μl of Mt suspended in IFA (0.5 mg/ml) at the base of the tail. At the time of AA induction, each rat also received 100 μg of FP or control peptide, or PBS dissolved in 50 μl of IFA and mixed with Mt/IFA used to induce AA. The day of AA induction was designated as day 0. Disease severity was assessed by direct observation of all 4 limbs in each animal. A relative score between 0 and 4 was assigned to each limb, based on the degree of joint inflammation, redness and deformity; thus the maximum possible score for an individual animal was 16 (Quintana et al., 2002). The mean AA score (±SEM) is shown for each experimental group. Arthritis was also quantified by measuring hind limb diameter with a caliper. Measurements were taken on the day of the induction of AA and 26 days later (at the peak of AA); the results are presented as the mean±SEM of the difference between the two values for all the animals in each group. The person who scored the disease was blinded to the identity of the groups.
AA was induced in rats as indicated above; at the time of AA induction, each rat also received 100 μg of IFFA or PBS dissolved in 50 μl of IFA and mixed with Mt/IFA used to induce AA. Disease severity was assessed as described above.

LNC from injected rats = experiment: T cell immunity to the injected peptide: IFN-γ secretion of LNC incubated ex vivo with the same peptide; assay type: in vivo, rat
Excerpt: Cytokine assays. Supernatants were collected after 72 hr of stimulation, and rat IL-10 and IFNγ were quantified by enzyme-linked immunosorbent assay (ELISA) using Pharmingen's OPTEIA kit (Pharmingen, San Diego, USA) as described (Quintana et al., 2002). When needed, cytokine levels are expressed as percentage of cytokine inhibition relative to cytokine levels when no peptide is present. Otherwise, the cytokines are shown as pg/ml. The lower limits of detection for the experiments described in this paper were 15 pg/ml for IL-10 and IFNγ. Cytokine amounts were calculated based on calibration curves constructed using recombinant cytokines as standards.
Rats were injected with FP, a control peptide (V2E or IFFA) or PBS in the presence of Mt and IFA. Twenty six days later, LNC were collected and incubated ex vivo with FP, V2E, IFFA, or PBS, respectively, and their IFN-γ secretion level was determined. […] LNC (incubated with PBS). […] Thus, the immunosuppressive effect of FP is sequence and structure specific.

Balb/c mice = experiment: DTH response to oxazolone, dermal treatment; assay type: in vivo; settings: 100 μg in 40 μl DMSO on the ear one hour after challenge, measured 24 h after challenge
Method: In other experiments, DTH response to oxazolone in the presence of FP and IFFA was measured. Female Balb/c mice (5 mice per group) were sensitized to the shaved abdominal skin with 100 microliter of 2% oxazolone dissolved in acetone/olive oil (4:1 vol/vol) applied topically, and 5 days later challenged with 20 microliter of 0.5% oxazolone in acetone/olive oil, 10 microliter administered to each side of the ear. One hour after stimulation, FP, IFFA (100 μg in 40 μl DMSO) or DMSO were administered to each side of the ear. A constant area of the ear was measured immediately before challenge and 24 h after challenge.

gp41 = gp41 (Human immunodeficiency virus type 1 group M subtype B, UniProt P04578); settings: effect of incorporation of D amino acids; cited from earlier work
Chain of gp41 (P04578 512-856): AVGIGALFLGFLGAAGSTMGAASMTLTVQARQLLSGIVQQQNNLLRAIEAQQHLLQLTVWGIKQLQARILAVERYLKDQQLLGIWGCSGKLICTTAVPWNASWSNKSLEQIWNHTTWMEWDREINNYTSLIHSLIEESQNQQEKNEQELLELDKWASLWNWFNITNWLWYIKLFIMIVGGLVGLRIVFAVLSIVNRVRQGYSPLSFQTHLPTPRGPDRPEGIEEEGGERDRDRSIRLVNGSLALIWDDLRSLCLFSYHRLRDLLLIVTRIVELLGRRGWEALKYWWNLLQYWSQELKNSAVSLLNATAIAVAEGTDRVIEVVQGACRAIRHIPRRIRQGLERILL

For `CC[C@H](C)[C@H](NC(=O)CNC(=O)[C@@H](NC(=O)[C@H](C)N)C(C)C)C(=O)NCC(=O)N[C@@H](C)C(=O)N[C@@H](CC(C)C)C(=O)N[C@@H](Cc1ccccc1)C(=O)N[C@@H](CC(C)C)C(=O)NCC(=O)N[C@@H](Cc1ccccc1)C(=O)N[C@@H](CC(C)C)C(=O)NCC(=O)N[C@@H](C)C(=O)N[C@@H](C)C(=O)NCC(=O)N[C@@H](CO)C(=O)N[C@H](C(=O)N[C@@H](CCSC)C(=O)NCC(=O)N[C@@H](C)C(=O)N[C@@H](CCCNC(=N)N)C(=O)N[C@@H](CO)C(=O)N[C@@H](CCSC)C(=O)N[C@H](C(=O)N[C@@H](CC(C)C)C(=O)N[C@H](C(=O)N[C@H](C(=O)N[C@@H](CCC(N)=O)C(=O)N[C@@H](C)C(=O)N[C@@H](CCCNC(=N)N)C(=O)N[C@@H](CCC(N)=O)C(=O)N[C@@H](CC(C)C)C(=O)O)C(C)C)[C@@H](C)O)[C@@H](C)O)[C@@H](C)O` [FP], the “survival of cells in culture” value (lymph node cells (LNC) [1]) was “the same survival in culture”.
For `CC[C@H](C)[C@H](NC(=O)CNC(=O)[C@H](CCC(=O)O)NC(=O)[C@H](C)N)C(=O)NCC(=O)N[C@@H](C)C(=O)N[C@@H](CC(C)C)C(=O)N[C@@H](Cc1ccccc1)C(=O)N[C@@H](CC(C)C)C(=O)NCC(=O)N[C@@H](Cc1ccccc1)C(=O)N[C@@H](CC(C)C)C(=O)NCC(=O)N[C@@H](C)C(=O)N[C@@H](C)C(=O)NCC(=O)N[C@@H](CO)C(=O)N[C@H](C(=O)N[C@@H](CCSC)C(=O)NCC(=O)N[C@@H](C)C(=O)N[C@@H](CCCNC(=N)N)C(=O)N[C@@H](CO)C(=O)N[C@@H](CCSC)C(=O)N[C@H](C(=O)N[C@@H](CC(C)C)C(=O)N[C@H](C(=O)N[C@H](C(=O)N[C@@H](CCC(N)=O)C(=O)N[C@@H](C)C(=O)N[C@@H](CCCNC(=N)N)C(=O)N[C@@H](CCC(N)=O)C(=O)N[C@@H](CC(C)C)C(=O)O)C(C)C)[C@@H](C)O)[C@@H](C)O)[C@@H](C)O` [V2E], the “survival of cells in culture” value (lymph node cells (LNC) [1]) was “the same survival in culture”.
With `CC[C@H](C)[C@H](NC(=O)[C@H](CS)NC(=O)[C@H](CCCNC(=N)N)NC(=O)[C@H](CC(C)C)NC(=O)[C@H](CC(C)C)NC(=O)[C@H](C)NC(=O)[C@H](CS)NC(=O)CNC(=O)CNC(=O)CNC(=O)[C@H](CC(C)C)NC(=O)[C@@H](N)C(C)C)C(=O)N1CCC[C@H]1C(=O)N[C@@H](C)C(=O)N[C@@H](CC(C)C)C(=O)N[C@@H](CC(=O)O)C(=O)N[C@@H](CO)C(=O)N[C@@H](CC(C)C)C(=O)N[C@H](C(=O)N1CCC[C@H]1C(=O)N[C@@H](C)C(=O)N[C@@H](CC(N)=O)C(=O)N[C@@H](CCC(=O)O)C(=O)N[C@@H](CC(=O)O)C(=O)O)[C@@H](C)O` [p277, reference compound] (H-VLGGGCALLRCIPALDSLTPANED-OH) the “survival of cells in culture” value (lymph node cells (LNC) [1]) was “the same survival in culture”.
For “AVGIGALF (Peptides derived of HIV-1 gp41) [FP1-8]”, the “inhibition of antigen-specific T cell proliferation” value (shortened to “inhibition”) (lymph node cells (LNC) [2]) was “inhibit antigen-specific T cell proliferation”.
In the case of “AVGIGALFLGFLGAAGSTMGARSMTLTVQARQL [IFFA]”, the “inhibition” value (lymph node cells (LNC) [3]) is reported as “inhibit antigen-specific T cell proliferation”, the “arthritis, clinical score” value (Lewis rats) is reported as “milder arthritis” and the “ex vivo activation relative to FP” value (LNC from injected rats; LNC collected 26 days after injection) is reported as “about ten fold more than FP”. For the same compound, the “ex vivo activation (IFN-γ secretion) of LNC by the injected peptide” value (LNC from injected rats; LNC collected 26 days after injection with Mt and IFA) was “highly reactive to IFFA ex vivo”, the “DTH reaction to oxazolone” value (Balb/c mice) was “inhibited the DTH reaction” and the “ability to inhibit gp41-mediated membrane fusion” value (gp41) was “does not affect its ability to inhibit gp41-mediated membrane fusion”.
For “GALFLGFLG (Peptides derived of HIV-1 gp41) [FP5-13]”, the “inhibition” value (lymph node cells (LNC) [2]) was “inhibit antigen-specific T cell proliferation”.
